What all share (conditions): 10 mM phosphate buffer, 99.9% killing
One experiment concerns Psuedomonas aeruginosa. Kind of experiment: Bacterial lysis assay (broth dilution), minimal bactericidal concentration. It is filed as cell-based, Pseudomonas aeruginosa. The source says: (§1) The assays for growth inhibition of a microbial target can be used to derive a minimum bactericidal concentration (MBC) value for the peptide, i.e., the concentration of peptide required to kill 99.9% of the microbial sample being tested. This value is well known to those in the art as representative of the effectiveness of a particular antimicrobial agent (e.g., an antibiotic) against a particular organism or group of organisms. In assays to detect the MBC of a peptide, growth inhibition of a bacterial population also can be measured with reference to the number of colony forming units (cfu) after exposure to a peptide relative to a control experiment without a peptide.
(§2) Bacterial lysis assay. Bacterial lysis assays were conducted in a manner similar to that described previously (Lehrer, R. I., M. E. Selsted, D. Szklarek, and F. J. 1983. Infect. Immun. 42: 10-4, 1983; Miller, M. A., R. F. Garry, J. M. Jaynes, and R. C. Montelaro, AIDS Res Hum Retroviruses 7: 511-519, 1991). Bacterial suspensions were cultured in Luria-Bertani Broth to mid-log growth phase and washed by two cycles of centrifugation and suspension in 10 mM phosphate buffer. The Abs600 of the suspension was adjusted with 10 mM phosphate buffer such that, upon dilution, 5-10x10^5 cfu/mL would be treated in the assay. Bacteria were incubated for 1h with two-fold dilutions of peptides (100µM to 100 nM) in 96-well plates using 10 mM phosphate buffer, pH 7.2, as a diluent. Ten-fold dilutions of bacteria were performed to 1:1000; a 100µl aliquot from each condition was spread on the surface of tryptic soy agar plates (Difco, Detroit, Mich.) which were incubated overnight. Colonies of surviving bacteria (cfu, colony-forming units) were counted and compared to untreated controls to determine the amount of peptide-induced killing under each condition. Log killing is defined as the log of the ratio of cfu present before and after treatment with peptide. The minimal bactericidal concentration, MBC, is the peptide concentration at which 99.9% (three log) killing is achieved (Pearson et al., Antimicrob. Agents Chemother. 18: 699-708, 1980).
(§3) Results. Representative gram positive (S. aureus) and gram negative (P. aeruginosa) clinical isolates were used as the index bacteria to survey the peptides described in this invention.
(§4) A limitation of many host-derived antimicrobial peptides is their decreased activity at physiologic (150 mM) NaCl concentration. See Friedrich et al., Antimicrobial Agents and Chemotherapy 43:1542-1548. The activity of eLLPs and LBUs of this invention were compared to an expanded list of clinical bacterial isolates. These are summarized in Table 2 by comparing their MBCs in phosphate buffer alone (low salt) and phosphate buffer containing 150 mM NaCl (physiologic conditions). Inspection of this table would lead one skilled in the art to conclude that the activity of eLLPs and LBUs compare favorably to the host derived antimicrobial peptides as it relates to the spectrum and potency of antimicrobial activity.
For orientation: Broth dilution looks for growth in wells or tubes with falling amounts of substance.

The test system of another experiment is Staphylococcus aureus. The description is as above. It counts as cell-based.
Description: as §1, §2, §3, §4

Experiment [1] concerns Methicillin Resistant S. aureus. It counts as cell-based.
Description: as §1, §2, §4

Converted amounts (≈) assume the structure as drawn. Read-outs that look alike come from different tables or passages of the source. Residues, ends and D or L forms follow the SMILES beside them. No end group written: not given here. Bounds are passed on as bounds.

Usually MBC stands for the smallest concentration meeting the test's criterion for killing. Regarding `CC(C)[C@H](N)C(=O)N[C@@H](CCCNC(=N)N)C(=O)N[C@@H](CCCNC(=N)N)C(=O)N[C@H](C(=O)N[C@H](C(=O)N[C@@H](CCCNC(=N)N)C(=O)N[C@@H](CCCNC(=N)N)C(=O)N[C@H](C(=O)N[C@H](C(=O)N[C@@H](CCCNC(=N)N)C(=O)N[C@H](C(=O)N[C@H](C(=O)N[C@@H](CCCNC(=N)N)C(=O)N[C@@H](CCCNC(=N)N)C(=O)N[C@H](C(=O)N[C@H](C(=O)N[C@@H](CCCNC(=N)N)C(=O)N[C@@H](CCCNC(=N)N)C(=O)N[C@H](C(=O)N[C@@H](CCCNC(=N)N)C(=O)N[C@@H](CCCNC(=N)N)C(=O)N[C@H](C(=O)N[C@H](C(=O)N[C@@H](CCCNC(=N)N)C(=O)N[C@@H](CCCNC(=N)N)C(=O)N[C@H](C(=O)N[C@H](C(=O)N[C@@H](CCCNC(=N)N)C(=O)N[C@H](C(=O)N[C@H](C(=O)N[C@@H](CCCNC(=N)N)C(=O)N[C@@H](CCCNC(=N)N)C(=O)N[C@H](C(=O)N[C@H](C(=O)N[C@@H](CCCNC(=N)N)C(=O)N[C@@H](CCCNC(=N)N)C(=O)O)C(C)C)C(C)C)C(C)C)C(C)C)C(C)C)C(C)C)C(C)C)C(C)C)C(C)C)C(C)C)C(C)C)C(C)C)C(C)C)C(C)C)C(C)C)C(C)C)C(C)C` [LBU-3, VRRVVRRVVRVVRRVVRRVRRVVRRVVRVV RRVVRR] (H-VRRVVRRVVRVVRRVVRRVRRVVRRVVRVVRRVVRR-OH), the MBC against Psuedomonas aeruginosa (0 mM NaCl) amounted to 1.5 µM (≈ 6.92 µg/mL); against Psuedomonas aeruginosa (150 mM NaCl), 0.8 µM (≈ 3.69 µg/mL); in the experiment with Staphylococcus aureus (0 mM NaCl) it was 1500 nM (≈ 6.92 µg/mL); against Staphylococcus aureus (150 mM NaCl) it was 1500 nM (≈ 6.92 µg/mL).
In the case of `CC(C)[C@H](NC(=O)[C@H](Cc1c[nH]c2ccccc12)NC(=O)[C@H](CCCNC(=N)N)NC(=O)[C@H](CCCNC(=N)N)NC(=O)[C@@H](NC(=O)[C@@H](NC(=O)[C@H](CCCNC(=N)N)NC(=O)[C@@H](NC(=O)[C@@H](NC(=O)[C@H](CCCNC(=N)N)NC(=O)[C@H](CCCNC(=N)N)NC(=O)[C@H](Cc1c[nH]c2ccccc12)NC(=O)[C@@H](NC(=O)[C@H](CCCNC(=N)N)NC(=O)[C@H](CCCNC(=N)N)NC(=O)[C@@H](NC(=O)[C@H](CCCNC(=N)N)NC(=O)[C@H](CCCNC(=N)N)NC(=O)[C@@H](NC(=O)[C@H](Cc1c[nH]c2ccccc12)NC(=O)[C@H](CCCNC(=N)N)NC(=O)[C@@H](N)CCCNC(=N)N)C(C)C)C(C)C)C(C)C)C(C)C)C(C)C)C(C)C)C(C)C)C(=O)N[C@@H](CCCNC(=N)N)C(=O)N[C@@H](CCCNC(=N)N)C(=O)O` [WLBU-2, RRWVRRVRRV WRRVV RVVRR WVRR] (H-RRWVRRVRRVWRRVVRVVRRWVRR-OH), the MBC in the experiment on Psuedomonas aeruginosa (0 mM NaCl) was determined as 0.2 µM (≈ 0.68 µg/mL); against Psuedomonas aeruginosa (150 mM NaCl), 0.1 µM (≈ 0.34 µg/mL); in the experiment with Staphylococcus aureus (0 mM NaCl), 1000 nM (≈ 3.4 µg/mL); against Staphylococcus aureus (150 mM NaCl), 600 nM (≈ 2.04 µg/mL); in experiment [1] (0 mM NaCl) it was 200 nM (≈ 0.68 µg/mL); in experiment [1] (150 mM NaCl), 100 nM (≈ 0.34 µg/mL).
Take “RVVRVVRRWVRRVRRVWRRVVRVVRRWVRRVRRVWRRVVRVVRRWRVV [WLBU-4, RVVRVVRRWVRRVRRVWRRVVRVVRRRVVRVVRRWRVV RWVRR VRRVW]”: the minimum bactericidal concentration (MBC) with Psuedomonas aeruginosa (0 mM NaCl) was 1.5 µM; in the experiment with Psuedomonas aeruginosa (150 mM NaCl), 0.4 µM; in the experiment with Staphylococcus aureus (0 mM NaCl), 3,000 nanomolar; against Staphylococcus aureus (150 mM NaCl), 600 nM; in experiment [1] (0 mM NaCl), 1500 nM; in experiment [1] (150 mM NaCl), 200 nM.
`CC(C)[C@H](NC(=O)[C@H](CCCNC(=N)N)NC(=O)[C@H](CCCNC(=N)N)NC(=O)[C@@H](NC(=O)[C@@H](NC(=O)[C@H](CCCNC(=N)N)NC(=O)[C@@H](N)CCCNC(=N)N)C(C)C)C(C)C)C(=O)N[C@@H](CCCNC(=N)N)C(=O)N[C@@H](CCCNC(=N)N)C(=O)N[C@H](C(=O)N[C@H](C(=O)N[C@@H](CCCNC(=N)N)C(=O)N[C@@H](CCCNC(=N)N)C(=O)N[C@H](C(=O)N[C@H](C(=O)N[C@@H](CCCNC(=N)N)C(=O)N[C@H](C(=O)N[C@H](C(=O)N[C@@H](CCCNC(=N)N)C(=O)N[C@@H](CCCNC(=N)N)C(=O)N[C@H](C(=O)N[C@H](C(=O)N[C@@H](CCCNC(=N)N)C(=O)N[C@@H](CCCNC(=N)N)C(=O)O)C(C)C)C(C)C)C(C)C)C(C)C)C(C)C)C(C)C)C(C)C)C(C)C` [LBU-2, RRVVRRVRRV VRRVV RVVRR VVRR] (H-RRVVRRVRRVVRRVVRVVRRVVRR-OH): the minimum bactericidal concentration (MBC) against Psuedomonas aeruginosa (0 mM NaCl) was 1.5 µM (≈ 4.71 µg/mL); against Psuedomonas aeruginosa (150 mM NaCl), 0.8 µM (≈ 2.51 µg/mL); against Staphylococcus aureus (0 mM NaCl), 1500 nM (≈ 4.71 µg/mL); in the experiment on Staphylococcus aureus (150 mM NaCl) it was >100,000 nanomolar.
Take “RVVRVVRRVVRRVRRVVRRVVRVVRRVVRRVRRVVRRVVRVVRRVVRR [LBU-4, RVVRVVRRVVRRVRRVVRRVVRVVRRVVRRVRRVVRRVVRVVRRVVRR]”: the MBC against Psuedomonas aeruginosa (0 mM NaCl) was 0.8 µM; against Psuedomonas aeruginosa (150 mM NaCl) it was 0.4 µM; with Staphylococcus aureus (0 mM NaCl) it was 800 nM; against Staphylococcus aureus (150 mM NaCl), 800 nM.
Regarding `CC(C)[C@H](NC(=O)[C@H](Cc1c[nH]c2ccccc12)NC(=O)[C@H](CCCNC(=N)N)NC(=O)[C@H](CCCNC(=N)N)NC(=O)[C@@H](NC(=O)[C@@H](NC(=O)[C@H](CCCNC(=N)N)NC(=O)[C@@H](NC(=O)[C@@H](NC(=O)[C@@H](N)CCCNC(=N)N)C(C)C)C(C)C)C(C)C)C(C)C)C(=O)N[C@@H](CCCNC(=N)N)C(=O)N[C@@H](CCCNC(=N)N)C(=O)O` [WLBU-1, RVVRV VRRWV RR] (H-RVVRVVRRWVRR-OH), the MBC was 0.4 µM (≈ 0.655 µg/mL) against Psuedomonas aeruginosa (0 mM NaCl); 2.5 µM (≈ 4.09 µg/mL) with Psuedomonas aeruginosa (150 mM NaCl); 30.000 nM (≈ 0.0491 µg/mL) in the experiment on Staphylococcus aureus (0 mM NaCl); 10.000 nM (≈ 0.0164 µg/mL) in the experiment on Staphylococcus aureus (150 mM NaCl); 50,000 nanomolar in experiment [1] (0 mM NaCl); 50,000 nanomolar in experiment [1] (150 mM NaCl).
For `CC(C)[C@H](N)C(=O)N[C@@H](CCCNC(=N)N)C(=O)N[C@@H](CCCNC(=N)N)C(=O)N[C@H](C(=O)N[C@@H](Cc1c[nH]c2ccccc12)C(=O)N[C@@H](CCCNC(=N)N)C(=O)N[C@@H](CCCNC(=N)N)C(=O)N[C@H](C(=O)N[C@H](C(=O)N[C@@H](CCCNC(=N)N)C(=O)N[C@H](C(=O)N[C@H](C(=O)N[C@@H](CCCNC(=N)N)C(=O)N[C@@H](CCCNC(=N)N)C(=O)N[C@@H](Cc1c[nH]c2ccccc12)C(=O)N[C@H](C(=O)N[C@@H](CCCNC(=N)N)C(=O)N[C@@H](CCCNC(=N)N)C(=O)N[C@H](C(=O)N[C@@H](CCCNC(=N)N)C(=O)N[C@@H](CCCNC(=N)N)C(=O)N[C@H](C(=O)N[C@@H](Cc1c[nH]c2ccccc12)C(=O)N[C@@H](CCCNC(=N)N)C(=O)N[C@@H](CCCNC(=N)N)C(=O)N[C@H](C(=O)N[C@H](C(=O)N[C@@H](CCCNC(=N)N)C(=O)N[C@H](C(=O)N[C@H](C(=O)N[C@@H](CCCNC(=N)N)C(=O)N[C@@H](CCCNC(=N)N)C(=O)N[C@@H](Cc1c[nH]c2ccccc12)C(=O)N[C@H](C(=O)N[C@@H](CCCNC(=N)N)C(=O)N[C@@H](CCCNC(=N)N)C(=O)O)C(C)C)C(C)C)C(C)C)C(C)C)C(C)C)C(C)C)C(C)C)C(C)C)C(C)C)C(C)C)C(C)C)C(C)C)C(C)C` [WLBU-3, VRRVWRRVVRVVRRWVRRVRRVWRRVVRVVRRWVRR] (H-VRRVWRRVVRVVRRWVRRVRRVWRRVVRVVRRWVRR-OH), the minimum bactericidal concentration (MBC) in the experiment with Psuedomonas aeruginosa (0 mM NaCl) was 1.5 µM (≈ 7.44 µg/mL); with Psuedomonas aeruginosa (150 mM NaCl) it was 0.8 µM (≈ 3.97 µg/mL); with Staphylococcus aureus (0 mM NaCl) it was 3,000 nanomolar; in the experiment with Staphylococcus aureus (150 mM NaCl) it was 600 nM (≈ 2.98 µg/mL); in experiment [1] (0 mM NaCl) it was 400 nM (≈ 1.98 µg/mL); in experiment [1] (150 mM NaCl), 100 nM (≈ 0.496 µg/mL).
As to “RRVVRRVRRVVRRVVRVVRRVVRRVRRVVRRVVRVVRRVVRR [LBU-3.5, RRVVRRVRRVVRRVVRVVRRVVRRVRRVVRRVVRVVRRVVRR]”, the MBC with Psuedomonas aeruginosa (0 mM NaCl) was 0.4 µM; with Psuedomonas aeruginosa (150 mM NaCl), 0.4 µM; against Staphylococcus aureus (0 mM NaCl), 1000 nM; in the experiment with Staphylococcus aureus (150 mM NaCl), 600 nM; in experiment [1] (0 mM NaCl), 1500 nM; in experiment [1] (150 mM NaCl) it was 200 nM.

The record behind these values is patent publication EP1368050B1, “VIRUS DERIVED ANTIMICROBIAL PEPTIDES” (priority 2001, dated 2008).
